Test results: patent publication US11891642B2, “Biocatalytic techniques” (HYPHA DISCOVERY LIMITED, priority 2018, dated 2024)

Key:
[1] = tested on: S. lividans HD000 negative control; assay: Whole-cell biotransformation of ritonavir in 24-well block format, empty-vector strain; type: cell-based, Streptomyces lividans; details: for +16 Da (1.67 min) / +16 Da (1.72 min) / +16 Da (1.76 min) / Parent (1.90 min): ritonavir 100 mg/L
Procedure: As a negative control, an empty plJ12551 expression vector was introduced into S. lividans TK24 by triparental conjugation as described above and designated as S. lividans […].
(§1) Approximately 10^8 cells of S. lividans HD000 and S. lividans […] inoculated separately into 50 mL of culture medium (containing 5 g/L glycerol; 20 g/L glucose; 5 g/L yeast extract peptone; 2 g/L meat extract; 5 g/L mycological peptone; 1 g/L ammonium phosphate dibasic; 3 g/I sodium chloride; 0.3 g/L magnesium sulphate heptahydrate and 3.5 g/L calcium carbonate, adjusted to pH 7.0 and sterilised at 115° C. for 15 minutes) in 250 mL baffled flasks and incubated shaking at 27° C., 200 rpm for 48 hours. In a 24-well micro-bioreactor block (EnzyScreen, Netherlands), 2.5 mL of S. lividans HD000 and S. lividans HD002 were dosed with ritonavir at a concentration of 100 mg/L. Ritonavir was formulated with 20% hydroxypropyl-p-cyclodextrin (prepared via 1 in 25 dilution of a stock solution of 25 mg ritonavir in 1 mL DMSO). Cultures were time-coursed daily after dosing to assess the production of the target metabolite hydroxy-ritonavir as in Example 5.
(§2) Conversions of ritonavir improved with longer incubations with the drug.

[2] = tested on: P450SriC12-ferredoxinSriF05-ferredoxin reductaseSCF15A expressed in S. lividans HD002; assay: Whole-cell biotransformation of ritonavir in 24-well block format; type: cell-based, Streptomyces rimosus NRRL-2234; details: for +16 Da (1.67 min) / +16 Da (1.72 min) / +16 Da (1.76 min) / Parent (1.90 min): ritonavir 100 mg/L
Procedure: as §1, §2

[3] = tested on: native codon optimised P450SriC12; assay: Cell-free hydroxylase/dealkylase assay, lyophilised extract incubated with bosentan, UPLC-MS; type: biochemical, Streptomyces rimosus NRRL-2234; details: 0.1 mg/ml bosentan, 27° C., 16-20 hours
Procedure: (§3) Lyophilised material of recombinant P450, ferredoxin and ferredoxin reductase proteins was made as described in Example 3 and reconstituted in high purity water to 90% the original volume. Biocatalysis was performed at 27° C. in the following conditions: 50 mM potassium phosphate pH 7.4, 5 mM MgCl2, 0.1 mg/ml substrate compound such as bosentan, cyclosporine A, diclofenac, ritonavir, tivantinib, valsartan or vanoxerine, native concentration of P450, ferredoxin and ferredoxin reductase as extracted (Example 3). Reactions were initiated by addition of 10× stock of cofactor mixture (50 mM G6P, 10 mM NADP, 10 UN/ml G6PDH) to provide a final volume of e.g., 100 μL. After 16-20 hours, reactions were extracted with an equal volume of acetonitrile, centrifuged to remove precipitated proteins and conversion assessed by UPLC-MS analysis.
(§4) Acidic Analysis Conditions • Column: Acquity UPLC BEH Shield RP18 1.7 μm 2.1 mm i.d. 50 mm length • Column temperature: 45° C. • Solvents: H2O, B: Acetonitrile, both with 0.1% Formic acid • Flow rate: 1.0 ml/min • Gradient (A9%/B %): t=0 mins: 98/2 to 2/98 at t=2.4 mins and held for a further 0.4 mins (2.8 mins total), return to 98/2 over 0.05 mins and re-equilibrated for 0.15 mins (t=3 mins) at a flow-rate of 1.0 mL/min.
(§5) Basic Analysis Conditions • Column: Waters Acquity UPLC BEH C18 1.7 μm 2.1 mm i.d. 50 mm length • Column temperature: 45° C. • Solvents: A: 10 mM ammonium bicarbonate in H2O, B: Acetonitrile • Gradient (A %/B %): t=0 mins: 98/2 to 2/98 at t=2.4 mins and held for a further 0.4 mins (2.8 mins total), return to 98/2 over 0.05 mins and re-equilibrated for 0.15 mins (t=3 mins) at a flow-rate of 1.0 mL/min. • Detector: Waters Acquity UPLC PDA (UV-Vis detection) and Waters Acquity UPLC QDA (MS)
(§6) The resulting plasmids containing the new mutants genes were transformed into recombinant E. coli strains for expression as described in Example 1, cultured and induced as described in Example 2, extracted and processed as described in Example 3 and tested for biocatalytic activity as described in Example 5 above.

[4] = tested on: R63W mutant of codon optimised P450SriC12; assay: as above; type: biochemical, Streptomyces rimosus NRRL-2234; details: 0.1 mg/ml bosentan, 27° C., 16-20 hours
Procedure: as §3, §4, §5, §6

[5] = Concentration of cytochrome P450 in cell-free extract by carbon monoxide difference spectrum (Omura and Sato); details: mutant P450SriC12 expressed in E. coli BL21 (DE3)
Procedure: Measurement is performed according to the method of Omura and Sato et al. (J Biol Chem, 239. 1964, 2370). That is to say, cytochrome P450 is analyzed quantitatively using the following formula, based on the difference in the absorbance of the reduced CO versus the reduced difference spectrum at 450 nm and 490 nm.
Measurement of the concentration of cytochrome P450 were performed according to the method of Omura and Sato et al. (J Biol Chem, 239. 1964, 2370). Cytochrome P450 concentrations of cell-free extracts of induced E. coli BL21 (DE3) Rosetta2 & Tuner cells harbouring either pHD05-SriC01, pHD02-SriC12-SriF05, pHD05-SriC14-SriF06, pHD05-SriC20, pHD05-SriC22 or pHD05-SriC51-SriF08 are shown in Table 2. Carbon monoxide difference spectra for P450SriC01, P450SriC12, P450SriC14, P450SriC20, P450SriC22 and P450SriC51 are shown in FIGS. 9, 10, 11, 19, 20 & 21 respectively.
The native and codon optimised P450sriC12 and ferredoxinsriF05 in pHD02-SriC12-SriF05 and pHD02-SriC12CO-SriF05CO respectively were introduced into E. coli BL21 (DE3). The recombinant strains were cultured and proteins were induced as in Example 2. The cell-free extract material was obtained as in Example 3 and carbon monoxide difference spectrums were measure to calculate the concentration of cytochrome P450.
The resulting plasmids containing the new mutants genes were transformed into recombinant E. coli strains for expression as described in Example 1, cultured and induced as described in Example 2, extracted and processed as described in Example 3 and tested for biocatalytic activity as described in Example 5 above. The carbon monoxide difference spectrum result of R63W mutant of codon optimised P450SriC12 is shown in FIG. 14 and the cytochrome P450 concentration of mutant P450SriC12 are shown in Table 5.

CC(C)c1nc(CN(C)C(=O)N[C@H](C(=O)N[C@@H](Cc2ccccc2)C[C@H](O)[C@H](Cc2ccccc2)NC(=O)OCc2cncs2)C(C)C)cs1 [ritonavir]
+16 Da (1.67 min) ([1]; sampling 24 hour): 0.0%
+16 Da (1.72 min) ([1]; sampling 24 hour): 0.0%
+16 Da (1.76 min) ([1]; sampling 24 hour): 0.0%
Parent (1.90 min) ([1]; sampling 24 hour): 100.0%
+16 Da (1.67 min) ([1]; sampling 48 hour): 0.0%
+16 Da (1.72 min) ([1]; sampling 48 hour): 0.0%
+16 Da (1.76 min) ([1]; sampling 48 hour): 0.0%
Parent (1.90 min) ([1]; sampling 48 hour): 100.0%
+16 Da (1.67 min) ([1]; sampling 120 hour): 0.0%
+16 Da (1.72 min) ([1]; sampling 120 hour): 0.0%
+16 Da (1.76 min) ([1]; sampling 120 hour): 0.0%
Parent (1.90 min) ([1]; sampling 120 hour): 100.0%
hydroxylation of ritonavir (in words) ([1]; whole cells): unable to hydroxylate ritonavir
+16 Da (1.67 min) ([2]; sampling 24 hour): 7.1%
+16 Da (1.72 min) ([2]; sampling 24 hour): 18.9%
+16 Da (1.76 min) ([2]; sampling 24 hour): 1.4%
Parent (1.90 min) ([2]; sampling 24 hour): 68.5%
+16 Da (1.67 min) ([2]; sampling 48 hour): 8.6%
+16 Da (1.72 min) ([2]; sampling 48 hour): 23.6%
+16 Da (1.76 min) ([2]; sampling 48 hour): 2.8%
Parent (1.90 min) ([2]; sampling 48 hour): 58.6%
+16 Da (1.67 min) ([2]; sampling 120 hour): 9.1%
+16 Da (1.72 min) ([2]; sampling 120 hour): 28.1%
+16 Da (1.76 min) ([2]; sampling 120 hour): 1.4%
Parent (1.90 min) ([2]; sampling 120 hour): 51.2%
hydroxylation of ritonavir (in words) ([2]; whole-cell biotransformation): able to hydroxylate ritonavir

COc1ccccc1Oc1c(NS(=O)(=O)c2ccc(C(C)(C)C)cc2)nc(-c2ncccn2)nc1OCCO [bosentan]
yield of the O-demethyl-bosentan product [3]: 3.3%
hydroxy-bosentan product [4]: no hydroxy-bosentan product was detected
yield of the O-demethyl-bosentan product [4]: 63.2%

B1: Mutant 20 R74Y L171A R183W: R74Y L171A R183W mutant of codon optimised cytochrome SriC12, SEQ ID NO: 255 (protein)
chain: MTEALPFPQDRTCPYDPPAGYQPLRDSRPLSRVTLYDGRPAWVVTGHAESRALLTDPRLSADRQNPAFPSPAPYFETLRKVRTPLLGVDDPEHNTQRRMLIPSFSVKRAAALRPRIQEIVDRLLDAMEQQGPPAELVSAFALPVPSMVICALLGVPYADHELFEGLSRTLAQSADPQEVTEAWDKLEDYFTALVERKRKEPGDGLLDELIAERLDSGELGHRELVRMAMLLLVAGHETTSNMLSLGTFTLLEHPEQFAALRADPSLLPAAVEELLRFLSIADGMVRVATEDIEIGGVTIRADDGVIFSTSVVNRDGAAYASPDTLDWERSARHHVAFGFGVHQCLGQNLARAEMEIAFGALFARFPGLRLAVPAAEIPVKPAHALQGLVELPVTW
modifications: R74Y L171A R183W mutant of SriC12
P450 concentration [5]: 14.1 µM

B2: Mutant 2 R63Y: R63Y mutant of codon optimised cytochrome SriC12, SEQ ID NO: 233 (protein)
chain: MTEALPFPQDRTCPYDPPAGYQPLRDSRPLSRVTLYDGRPAWVVTGHAESRALLTDPRLSADYQNPAFPSPAPRFETLRKVRTPLLGVDDPEHNTQRRMLIPSFSVKRAAALRPRIQEIVDRLLDAMEQQGPPAELVSAFALPVPSMVICALLGVPYADHELFEGLSRTLLQSADPQEVTEARDKLEDYFTALVERKRKEPGDGLLDELIAERLDSGELGHRELVRMAMLLLVAGHETTSNMLSLGTFTLLEHPEQFAALRADPSLLPAAVEELLRFLSIADGMVRVATEDIEIGGVTIRADDGVIFSTSVVNRDGAAYASPDTLDWERSARHHVAFGFGVHQCLGQNLARAEMEIAFGALFARFPGLRLAVPAAEIPVKPAHALQGLVELPVTW
modifications: R63Y mutant of SriC12
P450 concentration [5]: 6.2 µM

B3: Mutant 22 R63W R74Y L171A: R63W R74Y L171A mutant of codon optimised cytochrome SriC12, SEQ ID NO: 257 (protein)
chain: MTEALPFPQDRTCPYDPPAGYQPLRDSRPLSRVTLYDGRPAWVVTGHAESRALLTDPRLSADWQNPAFPSPAPYFETLRKVRTPLLGVDDPEHNTQRRMLIPSFSVKRAAALRPRIQEIVDRLLDAMEQQGPPAELVSAFALPVPSMVICALLGVPYADHELFEGLSRTLAQSADPQEVTEARDKLEDYFTALVERKRKEPGDGLLDELIAERLDSGELGHRELVRMAMLLLVAGHETTSNMLSLGTFTLLEHPEQFAALRADPSLLPAAVEELLRFLSIADGMVRVATEDIEIGGVTIRADDGVIFSTSVVNRDGAAYASPDTLDWERSARHHVAFGFGVHQCLGQNLARAEMEIAFGALFARFPGLRLAVPAAEIPVKPAHALQGLVELPVTW
modifications: R63W R74Y L171A mutant of SriC12
P450 concentration [5]: 19.9 µM

B4: Mutant 1 R63W: R63W mutant of codon optimised cytochrome SriC12, SEQ ID NO: 231 (protein)
chain: MTEALPFPQDRTCPYDPPAGYQPLRDSRPLSRVTLYDGRPAWVVTGHAESRALLTDPRLSADWQNPAFPSPAPRFETLRKVRTPLLGVDDPEHNTQRRMLIPSFSVKRAAALRPRIQEIVDRLLDAMEQQGPPAELVSAFALPVPSMVICALLGVPYADHELFEGLSRTLLQSADPQEVTEARDKLEDYFTALVERKRKEPGDGLLDELIAERLDSGELGHRELVRMAMLLLVAGHETTSNMLSLGTFTLLEHPEQFAALRADPSLLPAAVEELLRFLSIADGMVRVATEDIEIGGVTIRADDGVIFSTSVVNRDGAAYASPDTLDWERSARHHVAFGFGVHQCLGQNLARAEMEIAFGALFARFPGLRLAVPAAEIPVKPAHALQGLVELPVTW
modifications: R63W mutant of SriC12
P450 concentration [5]: 17.6 µM
